Consider 13 molecules from PubChem BioAssay (NCI).

The structures appear in SMILES notation.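 Results reflect a 48-hour exposure of cells in 96-well plates to compound at five concentrations. At the GI50, growth is halved. TGI: concentration producing complete growth inhibition.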

Common to all, as to assay: growth of human tumour cells (NCI), 48 h
Test [1] concerns RPMI-8226 leukemia.
Test [2] deals with MDA-MB-435.
Test [3] has as its system OVCAR-5 ovarian.
The subject of test [4] is HCC-2998 colon.
Test [5] deals with UACC-257 melanoma.
Test [6] concerns IGROV1 ovarian.
The test system of test [7] is HL-60(TB) leukemia.
In test [8] the test system is RXF 393 renal.
The test system of test [9] is SF-295 CNS.
The subject of test [10] is UACC-62 melanoma.

In the case of `COc1ccc2c(c1)C(=O)/C(=C/c1ccc([N+](=O)[O-])o1)O2`, the GI50 in [1] was 2.01 µM; in test [2] it was 1.39 µM; in test [3] it was 1.8 µM; in test [4], 1.89 µM; in [5], 1.61 µM; in [6], 1.02 µM. Further, the GI50 in [7] was 1.74 µM; in test [8], 1.39 µM; in test [9], 2.35 µM; in test [10], 1.36 µM. For the same molecule, the TGI in test [1] came out at 6.2 µM; in test [2], 3.02 µM; in test [3], 3.64 µM; in test [4] it was 3.74 µM; in [5] it was 3.45 µM; in test [6] it was 3.58 µM. Further, the TGI in test [7] was 4.19 µM; in test [8] it was 3.05 µM; in [9], 9.89 µM; in test [10] it was 2.91 µM.
On to `CN(C)CCNC(=O)Cn1cnc2cccc([N+](=O)[O-])c2c1=O`, for which the TGI in test [1], in test [2], in test [3], in test [4], in [5] and in test [6] was more than 100 µM in each case. Besides, the TGI in test [7], in test [8], in test [9] and in test [10] was more than 100 µM in each case.
In the case of `Cc1ccc(C(=O)/C(=C\c2ccc([N+](=O)[O-])cc2)S(=O)Cc2ccc(Cl)cc2)cc1` (stereo not given), the GI50 in test [1] was 1.29 µM; in [2] it was 1.87 µM; in [3], 1.97 µM; in test [4], 1.82 µM; in test [5], 1.89 µM; in test [6], 1.77 µM. Also, the GI50 was 2.47 µM in [7], 1.65 µM in [8], 1.8 µM in [9] and 1.65 µM in [10]. The TGI worked out at 4.62 µM in [1]; 4 µM in test [2]; 3.91 µM in [3]; 3.36 µM in test [4]; 3.89 µM in test [5]; 3.45 µM in [6]. For the same molecule, the TGI was 6.82 µM in [7], 3.1 µM in [8], 4.28 µM in test [9] and 3.22 µM in test [10].
Consider `C/C(=N\NC(=S)SCc1ccccc1)c1ccccn1`, for which the TGI came to 1.97 µM in test [1]; 18.3 µM in [2]; 9.71 µM in test [3]; 23.8 µM in test [4]; 1.42 µM in test [5]; 30.2 µM in test [6]. Also, the TGI worked out at 1.04 µM in test [7], 3.03 µM in test [8], 9.26 µM in test [9] and 4.69 µM in test [10].
For the molecule `CCOC(=O)C#Cc1c(C(=O)OCC)nnn1Cc1ccc([N+](=O)[O-])cc1`, the GI50 was 2.8 µM in test [1]; 3.35 µM in [2]; 8.34 µM in test [3]; 18.3 µM in [4]; 2.71 µM in [5]; 11.9 µM in test [6]. For the same molecule, the GI50 is 1.62 µM in test [7], 1.89 µM in test [8], 18.9 µM in [9] and 1.83 µM in [10]. Also, the TGI in [1] is 7.37 µM; in [2] it was 12.4 µM; in test [3], 22.7 µM; in [4], 32.2 µM; in test [5], 7.08 µM; in test [6] it was 28.5 µM. Also, the TGI in [7] is 5.62 µM; in [8], 3.52 µM; in [9] it was 38.1 µM; in test [10] it was 4.42 µM.
As to `O=C(O)c1c(=O)cccc2ssc12`, the GI50 is 2.19 µM in [1]; 1.93 µM in test [2]; 1.71 µM in test [3]; 1.8 µM in test [4]; 2.02 µM in test [5]; 2.39 µM in [6]. Further, the GI50 in [7] was 1.81 µM; in test [8] it was 1.91 µM; in test [9] it was 1.67 µM; in [10], 2.09 µM. The TGI came out at 5.66 µM in test [1]; 3.75 µM in test [2]; 3.45 µM in test [3]; 3.36 µM in test [4]; 4.19 µM in test [5]; 5.91 µM in test [6]. In addition, the TGI in test [7] is 4.43 µM; in test [8] it was 3.39 µM; in test [9], 3.17 µM; in test [10], 4.59 µM.
Take `C=C1C(=O)O[C@H]2[C@H]1CC/C(COC(=O)C(C)c1ccc(CC(C)C)cc1)=C\CC[C@@]1(C)O[C@@H]21` (stereo not given in full): the GI50 was 0.278 µM in test [1]; 1.49 µM in test [2]; 1.8 µM in [3]; 1.95 µM in test [4]; 1.66 µM in [5]; 1.07 µM in test [6]. The GI50 in test [7] was 0.647 µM; in test [8], 1.38 µM; in test [9], 2.47 µM; in test [10], 1.48 µM. Also, the TGI in test [1] was 1.19 µM; in test [2], 2.92 µM; in test [3], 3.46 µM; in test [4], 3.74 µM; in test [5] it was 3.32 µM; in test [6] it was 2.33 µM. The TGI amounted to 2.68 µM in test [7], 2.75 µM in test [8], 7.39 µM in test [9] and 2.85 µM in [10].
As for `O=C1OC(=O)C2CCCC3CCCC1C32` (stereo not given), the TGI in test [1], in [2], in test [3], in [4], in test [5] and in test [6] was more than 100 µM each time. Moreover, the TGI in test [7], in test [8], in test [9] and in [10] was more than 100 µM in each case.
With `CC(=O)O[C@H]1[C@@H]2OC(=O)C(CSc3ccccc3)[C@@H]2C[C@H]2O[C@]2(C)CC/C=C(\C)CCC[C@@H]1C` (stereo not given in full), the GI50 is 0.192 µM in test [1]; 2.12 µM in test [2]; 12.4 µM in test [3]; 4.7 µM in [4]; 5.07 µM in test [5]; 3.05 µM in [6]. Also, the GI50 in test [7] was 1.4 µM; in test [8], 1.88 µM; in test [9], 3.73 µM; in [10], 4.65 µM. In addition, the TGI in test [1] stood at 10.4 µM; in test [2], 5.9 µM; in [3], 33.7 µM; in test [4], 16.3 µM; in [5] it was 19.2 µM; in test [6], 9.38 µM. Moreover, the TGI is 4.69 µM in test [7], 3.79 µM in test [8], 34.6 µM in test [9] and 14.8 µM in test [10].
Turning to `CC1=C(/C=C/C(C)=C/C=C/C(C)=C/C(=O)O)C(C)(C)CCC1`, the TGI in test [1] was 57.7 µM; in [2], more than 100 µM; in test [3], more than 85.4 µM; in test [4] it was 66.8 µM; in [5], 99.7 µM; in test [6], more than 100 µM. Moreover, the TGI is 59.3 µM in test [7], more than 81.5 µM in test [8], more than 88.6 µM in test [9] and more than 77.4 µM in test [10].
Consider `CN(Cc1cc(Br)cc(Br)c1O)Cc1c(O)ccc2ccccc12`, for which the TGI is more than 100 µM in test [1]; 40.3 µM in [2]; 37.1 µM in test [3]; 37.9 µM in test [4]; 37.5 µM in [5]; 44.6 µM in test [6]. In addition, the TGI in test [7] came to 46.1 µM; in test [8] it was 38.8 µM; in [9], 47.5 µM; in [10] it was 41.3 µM.
As to `CCCCCCCCCCCCCCCCCCOCC(CCP(=O)(CP(=O)(O)O)Oc1ccccc1)OCCCCCCCCCCCCCCCCCC` (stereo not given), the TGI in test [1], in test [2], in test [3], in test [4], in test [5] and in [6] was more than 100 µM in each case. In addition, the TGI in [7], in test [8], in [9] and in test [10] was more than 100 µM throughout.
On to `Cc1cc(-c2ccccn2)cc(C)c1/C=C/c1cncc(-c2nn[nH]n2)c1`, for which the GI50 in test [1], in test [2], in [3], in test [4], in [5] and in test [6] was more than 25 µM each time. Also, the GI50 in [7], in [8], in test [9] and in test [10] was more than 25 µM throughout. In addition, the TGI in test [1], in test [2], in test [3], in test [4], in [5] and in test [6] was more than 25 µM each time. The TGI in [7], in [8], in test [9] and in test [10] was more than 25 µM each time.
